# Source: patent US20220175761A1, “BI-LIGAND DRUG CONJUGATE AND USE THEREOF” (COHERENT BIOPHARMA (SUZHOU), LIMITED, priority 2019, published 2022)
# “And” between values parts separate entries of the source, which are not always exact repeats. Equal values may be shown once. Square brackets hold non-standard residues; d marks the D form. Peptide text beside a SMILES is read from it. * marks the point of attachment. Dolaproine = CO[C@@H]([C@@H]1CCCN1)[C@@H](C)C(=O)O; Dil = CC[C@H](C)[C@H](NC)[C@@H](CC(=O)O)OC; X1 = C[C@@H](N*)[C@@H](O)c1ccccc1; NMeV = CN[C@H](C(=O)O)C(C)C
# Key:
# Test in all cases: Inhibition of cell line proliferation, CCK8
# Format in all cases: cell-based
# [1] = system: LNCaP (human prostate cancer cells); details: LNCaP; for IC50: 68-72 hours, CCK8
# [2] = system: 22RV1 (human prostate cancer cells); details: for IC50: 22RV1, 68-72 hours, CCK8
# Source text: Since different cells have different sensitivity to a cell proliferation inhibitory toxicity of the payload in a ligand conjugate, the quantitative analysis may be interfered occasionally. A series of cell lines with known expression levels of receptors of different ligands were selected and tested for the response to inhibitory effects of the cell proliferation of a ligand conjugate and a single payload. The IC50 ratio of a single payload to that of a ligand conjugate in same cell line were taken to remove such interference.
# (§1) Experimental operations: LNCaP and 22RV1 cells were prepared in advance, counted, and plated in 96-well cell culture plates at a cell density of 4×10^4 cells/ml and 2.0×10^4 cells/ml, respectively (100 μl/well); negative control and blank control wells were set on each plate. After adherent cell culture overnight, the diluted samples to be tested were added at 50 μl/well. The plates were placed in an incubator at 37° C., 5% CO2 and cultured for 68-72 hours. To each well, 15 μl (10% of the liquid volume in a well) of a color developing solution from CCK8 was added; and the plates were incubated at 37° C. for 45-70 minutes and each plate was read at 450 nm on a microplate reader. The data was edited using SoftMax Pro and a 4-P fitting curve was plotted.
# [3] = system: CFPAC-1 (human pancreatic cancer cells); details: for IC50: CFPAC-1, 68-72 hours, CCK8
# [4] = system: PANC-1 (human pancreatic cancer cells); details: for IC50: PANC-1, 68-72 hours, CCK8
# Method: as §1, with “PANC-1” for “LNCaP”, “CFPAC-1” for “22RV1”, “cells/ml” for “cells/ml and 2.0×10^4 cells/ml, respectively”
# (§2) Experimental operations: LNCaP, SK-BR-3, NCI-H226, CFPAC-1 and PANC-1 cells were prepared in advance and counted; with a culture medium (IMDM+10% FBS+1× L-Glutamine+1×P/S), the cells LNCaP, SK-BR-3 and CFPAC-1 were diluted to 4×10^4 cells/ml, NCI-H226 was diluted to 2.0×10^4 cells/ml and PANC-1 was diluted to 3.0×10^4 cells/ml; the diluted cell solution was plated in 96-well plates at 100 μl/well; and negative control and blank control wells were set on each plate. After adherent cell culture overnight, the diluted samples to be tested were added at 50 μl/well. The plates were placed in an incubator at 37° C., 5% CO2 and cultured for 68-72 hours. To each well, 15 μl (10% of the liquid volume in a well) of a color developing solution from CCK8 was added; and the plates were incubated at 37° C. for 45-70 minutes and each plate was read at 450 nm on a microplate reader. The data was edited using SoftMax Pro and a 4-P fitting curve was plotted.
# as §2, with “Operations:” for “operations:”, “MDA-MB-468,” for “SK-BR-3, NCI-H226,”, “MDA-MB-468” for “SK-BR-3”, “cells/ml,” for “cells/ml, NCI-H226 was diluted to 2.0×10^4 cells/ml”
Structure (SMILES),IC50 ratio (MMAE/conjugate) [1],IC50 [1],IC50 ratio (MMAE/conjugate) ([2]; 22RV1),IC50 [2],IC50 (MMAE)/IC50 (conjugate) ([3]; CFPAC-1),IC50 [3],IC50 (MMAE)/IC50 (conjugate) ([4]; PANC-1),IC50 [4]
CC[C@H](C)[C@@H]([C@@H](CC(=O)N1CCC[C@H]1[C@H](OC)[C@@H](C)C(=O)N[C@H](C)[C@@H](O)c1ccccc1)OC)N(C)C(=O)[C@@H](NC(=O)[C@H](C(C)C)N(C)C(=O)OCc1ccc(NC(=O)C(CCCNC(N)=O)NC(=O)[C@@H](NC(=O)CCCCCN2C(=O)CC(SC[C@H](NC(=O)[C@H](CCCCN)NC(=O)[C@H](CC(=O)O)NC(=O)[C@H](CC(=O)O)NC(=O)Cc3ccc(CNC(=O)NCCCC[C@H](NC(=O)N[C@@H](CCC(=O)O)C(=O)O)C(=O)O)cc3)C(=O)N[C@@H](CCCCNC(=O)CC[C@H](NC(=O)c3ccc(NCc4cnc5[nH]c(N)nc(=O)c5n4)cc3)C(=O)O)C(N)=O)C2=O)C(C)C)cc1)C(C)C (stereo partly drawn) [CB-20BK],0.0267,95.8 nM,0.013,502 nM,0.027,557 nM,0.020,126 nM
"CC[C@H](C)[C@@H]([C@@H](CC(=O)N1CCC[C@H]1[C@H](OC)[C@@H](C)C(=O)N[C@H](C)[C@@H](O)c1ccccc1)OC)N(C)C(=O)[C@@H](NC(=O)[C@@H](NC)C(C)C)C(C)C [MMAE, monomethyl auristatin E] (H-[NMeV]V[Dil][Dolaproine]-X1)",–,2.55 nM and 3 nM,–,6.48 nM,–,15 nM,–,2 nM
